Some test systems named below: EKVX; NCI-H460; HT-29; M14; COLO 205; HL-60; SNB-75; HCT-15; SR; HCC 2998; NCI-H522; UACC-257; TK-10; ACHN; OVCAR-4; SF-268; MDA-MB-231; PC-3.
Common to all, as to test: NCI-60 cell line screen, 48 h

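96-well plates; 48 h exposure; 5 concentrations. Endpoints by linear interpolation between flanking doses. Not reached: highest tested concentration assigned. GI50: concentration for 50% inhibition of growth.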 Calls of active or inactive are those of the source. Rule as the data show it: active = GI50 up to about 1.1 µM and inactive = higher.

On to `Oc1ccc2c(c1)OCC1(O)Cc3cc(O)c(O)cc3C21` (stereo not given), for which the GI50 in the assay on EKVX is 27 µM (inactive); in the assay with NCI-H460 it was 27.8 µM (inactive); in the assay on HT-29, 21.3 µM (inactive); in the assay on M14, 19.2 µM (inactive); with COLO 205, 16.8 µM (inactive); with HL-60, 25.6 µM (inactive). Further, the GI50 in the assay on SNB-75 was 24.3 µM (inactive); in the assay with HCT-15 it was 20.2 µM; in the assay with SR it was 30.8 µM (inactive); in the assay with HCC 2998, 21.2 µM (inactive); in the assay on NCI-H522 it was 21.3 µM (inactive); with UACC-257 it was 19.9 µM (inactive). Also, the GI50 is 17.4 µM (inactive) with TK-10, 18.2 µM (inactive) in the assay on ACHN, 19.1 µM (inactive) in the assay with OVCAR-4 and 27.1 µM (inactive) in the assay with SF-268.

Turning to `Cc1cc([N+](=O)[O-])c(C)c2c1[nH]c1ccc(O)cc12`, the GI50 was > 100 µM (inactive) in the assay with EKVX; > 100 µM (inactive) in the assay with NCI-H460; > 100 µM (inactive) with HT-29; > 100 µM (inactive) with M14; 64.6 µM (inactive) with COLO 205; 16.2 µM (inactive) in the assay with HL-60. In addition, the GI50 with SNB-75 was > 100 µM (inactive); in the assay on HCT-15 it was 50 µM; with SR, 28.8 µM (inactive); with HCC 2998, > 100 µM (inactive); in the assay with NCI-H522 it was > 10 µM (inactive); in the assay with UACC-257, > 100 µM (inactive). For the same molecule, the GI50 in the assay on TK-10 is > 100 µM (inactive); in the assay on ACHN it was 99.8 µM (inactive); in the assay with OVCAR-4 it was > 100 µM (inactive); in the assay with SF-268, > 100 µM (inactive).

Turning to `COc1ccc2[nH]cc(CCNC(=O)[C@](O)(Cc3cn(C)c4ccccc34)[C@@]3(O)OCC(O)C3O)c2c1` (stereo not given in full), the GI50 was > 100 µM (inactive) in the assay with EKVX; 77.4 µM (inactive) with NCI-H460; > 100 µM (inactive) in the assay with HT-29; > 100 µM (inactive) in the assay with M14; > 100 µM (inactive) with COLO 205; 32.1 µM (inactive) in the assay with HL-60. Moreover, the GI50 in the assay on SNB-75 was 38.5 µM (inactive); in the assay on HCT-15 it was greater than 100 µM; in the assay on SR it was > 100 µM (inactive); in the assay on HCC 2998, > 100 µM (inactive); in the assay on NCI-H522, > 100 µM (inactive); in the assay on UACC-257, > 100 µM (inactive). Also, the GI50 in the assay with TK-10 was > 100 µM (inactive); with ACHN, > 100 µM (inactive); in the assay on OVCAR-4, > 100 µM (inactive); in the assay with SF-268, 82.6 µM (inactive).

Consider `CCCCCCCC(=O)OCC1OC(OC)C(NC(=O)N(CCCl)N=O)C(O)C1O` (stereo not given), for which the GI50 is 30.6 µM (inactive) in the assay on EKVX; 3.46 µM (inactive) in the assay on NCI-H460; 15 µM (inactive) with HT-29; 8.41 µM (inactive) in the assay with M14; 14.7 µM (inactive) in the assay on COLO 205; 4.14 µM (inactive) in the assay on HL-60. In addition, the GI50 in the assay with SNB-75 was 4.72 µM (inactive); with HCT-15, 3.27 µM; in the assay on SR, 0.272 µM (active); with HCC 2998, 14.3 µM (inactive); in the assay with NCI-H522, 11.2 µM (inactive); in the assay with UACC-257 it was 16.1 µM (inactive). Also, the GI50 with TK-10 is 18.5 µM (inactive); in the assay with ACHN, 7.18 µM (inactive); in the assay with OVCAR-4 it was > 54.6 µM (inactive); with SF-268, 2.15 µM (inactive).

On to `COc1ccc(C(=O)C(c2ccc(OCc3ccccc3)cc2)c2ccc(OCc3ccccc3)cc2)cc1`, for which the GI50 in the assay with EKVX, with NCI-H460, with HT-29, with M14, in the assay with COLO 205 and with HL-60 was > 100 µM (inactive) each time. Further, the GI50 with SNB-75 was > 100 µM (inactive); in the assay on HCT-15 it was greater than 100 µM; in the assay on SR it was > 100 µM (inactive); in the assay with HCC 2998, > 100 µM (inactive); in the assay with NCI-H522, > 100 µM (inactive); in the assay on TK-10 it was > 100 µM (inactive). The GI50 in the assay with ACHN, with OVCAR-4 and in the assay on SF-268 was > 100 µM (inactive) in each case.

As to `NC(=O)/N=C1/CCC2C3CCCC2C13`, the GI50 in the assay on EKVX, in the assay with NCI-H460, in the assay on HT-29, in the assay with M14, in the assay with COLO 205 and with HL-60 was > 100 µM (inactive) throughout. The GI50 in the assay with SNB-75, in the assay with SR, with HCC 2998, in the assay on NCI-H522, in the assay with UACC-257 and in the assay with TK-10 was > 100 µM (inactive) each time. For the same molecule, the GI50 in the assay with ACHN, in the assay on OVCAR-4 and with SF-268 was > 100 µM (inactive) in each case.

In the case of `C[N+](C)(C)CC(=O)NC(=O)N/N=C\C(CC#N)CN(Cc1ccccc1)Cc1ccccc1` (stereo not given), the GI50 with EKVX, with NCI-H460, in the assay with HT-29, with M14, in the assay on COLO 205 and in the assay with HL-60 was > 100 µM (inactive) throughout. The GI50 with SNB-75 is > 100 µM (inactive); with HCT-15 it was greater than 100 µM; in the assay on SR, > 100 µM (inactive); with HCC 2998, 66.4 µM (inactive); with NCI-H522, > 100 µM (inactive); with UACC-257 it was > 100 µM (inactive). The GI50 in the assay with TK-10, in the assay on ACHN, in the assay with OVCAR-4 and with SF-268 was > 100 µM (inactive) throughout.

Take `Cn1c2ccccc2c2c(-c3ccccc3)[n+]3ccccc3nc21`: the GI50 in the assay on EKVX was 36.1 µM (inactive); in the assay on NCI-H460 it was 21.9 µM (inactive); in the assay on HT-29, 53.7 µM (inactive); in the assay with M14, 18.1 µM (inactive); in the assay on COLO 205, 43.1 µM (inactive); in the assay with HL-60 it was 24.8 µM (inactive). Also, the GI50 with SNB-75 was 19.5 µM (inactive); in the assay with HCT-15, greater than 100 µM; in the assay with SR it was 23.9 µM (inactive); in the assay with NCI-H522 it was 25.4 µM (inactive); in the assay with UACC-257, 18.4 µM (inactive); in the assay on MDA-MB-231, 32.9 µM (inactive). Besides, the GI50 is 31.9 µM (inactive) in the assay with TK-10; 98.6 µM (inactive) with ACHN; 61.7 µM (inactive) in the assay on OVCAR-4; 18.5 µM (inactive) in the assay on SF-268; 26.2 µM (inactive) with PC-3.

Regarding `Cc1cc(O)nc(CNC(=O)c2ccc3ccccc3c2)n1`, the GI50 with EKVX, in the assay on NCI-H460, with HT-29, with M14, in the assay on COLO 205 and in the assay on HL-60 was > 100 µM (inactive) in each case. Also, the GI50 in the assay with SNB-75 is > 100 µM (inactive); in the assay with HCT-15, greater than 100 µM; in the assay on SR it was > 100 µM (inactive); in the assay on HCC 2998, > 100 µM (inactive); in the assay on NCI-H522, > 100 µM (inactive); in the assay on UACC-257 it was > 100 µM (inactive). The GI50 in the assay on TK-10, in the assay with ACHN, with OVCAR-4 and in the assay with SF-268 was > 100 µM (inactive) throughout.

Take `N#Cc1c2ccc([N+](=O)[O-])cc2c(=O)n2c1sc1ccc(C(F)(F)F)cc12`: the GI50 in the assay with EKVX, in the assay on NCI-H460, with HT-29, in the assay with M14, in the assay with COLO 205 and with SNB-75 was > 100 µM (inactive) in each case. Moreover, the GI50 in the assay on HCT-15 is greater than 100 µM; with NCI-H522, > 100 µM (inactive); in the assay with UACC-257 it was > 100 µM (inactive); in the assay on MDA-MB-231 it was > 100 µM (inactive); in the assay with TK-10 it was > 100 µM (inactive); in the assay on ACHN, > 100 µM (inactive). In addition, the GI50 in the assay with OVCAR-4 and in the assay on SF-268 was > 100 µM (inactive) in each case.

Turning to `C=CCC12CCC(=O)[C@@]1(C)CC=C(O)C2=O` (stereo not given in full), the GI50 in the assay on EKVX, with NCI-H460, with HT-29, in the assay on M14, with COLO 205 and in the assay with HL-60 was > 100 µM (inactive) in each case. The GI50 is > 100 µM (inactive) with SNB-75; greater than 100 µM with HCT-15; > 100 µM (inactive) in the assay with SR; > 100 µM (inactive) in the assay with HCC 2998; > 100 µM (inactive) with NCI-H522; > 100 µM (inactive) in the assay with UACC-257. Moreover, the GI50 in the assay on TK-10, in the assay on ACHN, with OVCAR-4 and with SF-268 was > 100 µM (inactive) throughout.

In the case of `COC(=O)C1C=CCON2CCc3c(n(S(=O)(=O)c4ccccc4)c4ccccc34)C12` (stereo not given), the GI50 in the assay on EKVX is 41.5 µM (inactive); with NCI-H460, 52.6 µM (inactive); with HT-29, 43.4 µM (inactive); with M14 it was 44.5 µM (inactive); in the assay with COLO 205 it was 33.5 µM (inactive); in the assay with HL-60, 27 µM (inactive). Further, the GI50 was 79.3 µM (inactive) with SNB-75; 50.8 µM with HCT-15; 34.1 µM (inactive) in the assay on SR; 51.5 µM (inactive) with HCC 2998; 26.9 µM (inactive) in the assay with NCI-H522; 50.1 µM (inactive) with UACC-257. Besides, the GI50 was > 78.3 µM (inactive) with TK-10, 65.3 µM (inactive) with ACHN, > 31.6 µM (inactive) in the assay on OVCAR-4 and > 100 µM (inactive) with SF-268.

With `O=C1CC[C@H](NC(=O)Cc2ccccc2)C(=O)N1` [ANTINEOPLASTON A10], the GI50 in the assay on EKVX, in the assay on NCI-H460, with HT-29, in the assay on M14, in the assay on COLO 205 and in the assay with HL-60 was > 1250 µM (inactive) each time. Further, the GI50 in the assay with SNB-75 was 877 µM (inactive); in the assay with HCT-15, greater than 1250 µM; in the assay on SR, > 1250 µM (inactive); in the assay with HCC 2998, > 1250 µM (inactive); in the assay with NCI-H522 it was > 1250 µM (inactive); in the assay with UACC-257, > 1250 µM (inactive). Also, the GI50 in the assay on TK-10, with ACHN, in the assay with OVCAR-4 and in the assay with SF-268 was > 1250 µM (inactive) in each case.

The record behind these values is ChEMBL document CHEMBL1201862, “PubChem BioAssay data set” (2004).
